Tests used:
MCF7 = assay: Antiproliferative activity against human MCF7 cells assessed as reduction in cell viability after 120 hrs by ATPlite assay; format: functional, cell-based; conditions: MCF7, 120 h
[1] = Antiproliferative activity against human KMS-12-BM cells assessed as reduction in cell viability after 120 hrs by ATPlite assay; format: functional, cell-based
[2] = target: T1, Lysine-specific demethylase 3A (Homo sapiens, UniProt Q9Y4C1); assay: Inhibition of recombinant human N-terminal FLAG-tagged KDM3A (2 to 1322 residues) expressed in baculovirus infected sf9 cells using biotin-H3K9me as substrate preincubated for 10 mins followed by substrate addition measured after 10 mins by AlphaLisa assay
T1 sequence (Q9Y4C1 whole entry): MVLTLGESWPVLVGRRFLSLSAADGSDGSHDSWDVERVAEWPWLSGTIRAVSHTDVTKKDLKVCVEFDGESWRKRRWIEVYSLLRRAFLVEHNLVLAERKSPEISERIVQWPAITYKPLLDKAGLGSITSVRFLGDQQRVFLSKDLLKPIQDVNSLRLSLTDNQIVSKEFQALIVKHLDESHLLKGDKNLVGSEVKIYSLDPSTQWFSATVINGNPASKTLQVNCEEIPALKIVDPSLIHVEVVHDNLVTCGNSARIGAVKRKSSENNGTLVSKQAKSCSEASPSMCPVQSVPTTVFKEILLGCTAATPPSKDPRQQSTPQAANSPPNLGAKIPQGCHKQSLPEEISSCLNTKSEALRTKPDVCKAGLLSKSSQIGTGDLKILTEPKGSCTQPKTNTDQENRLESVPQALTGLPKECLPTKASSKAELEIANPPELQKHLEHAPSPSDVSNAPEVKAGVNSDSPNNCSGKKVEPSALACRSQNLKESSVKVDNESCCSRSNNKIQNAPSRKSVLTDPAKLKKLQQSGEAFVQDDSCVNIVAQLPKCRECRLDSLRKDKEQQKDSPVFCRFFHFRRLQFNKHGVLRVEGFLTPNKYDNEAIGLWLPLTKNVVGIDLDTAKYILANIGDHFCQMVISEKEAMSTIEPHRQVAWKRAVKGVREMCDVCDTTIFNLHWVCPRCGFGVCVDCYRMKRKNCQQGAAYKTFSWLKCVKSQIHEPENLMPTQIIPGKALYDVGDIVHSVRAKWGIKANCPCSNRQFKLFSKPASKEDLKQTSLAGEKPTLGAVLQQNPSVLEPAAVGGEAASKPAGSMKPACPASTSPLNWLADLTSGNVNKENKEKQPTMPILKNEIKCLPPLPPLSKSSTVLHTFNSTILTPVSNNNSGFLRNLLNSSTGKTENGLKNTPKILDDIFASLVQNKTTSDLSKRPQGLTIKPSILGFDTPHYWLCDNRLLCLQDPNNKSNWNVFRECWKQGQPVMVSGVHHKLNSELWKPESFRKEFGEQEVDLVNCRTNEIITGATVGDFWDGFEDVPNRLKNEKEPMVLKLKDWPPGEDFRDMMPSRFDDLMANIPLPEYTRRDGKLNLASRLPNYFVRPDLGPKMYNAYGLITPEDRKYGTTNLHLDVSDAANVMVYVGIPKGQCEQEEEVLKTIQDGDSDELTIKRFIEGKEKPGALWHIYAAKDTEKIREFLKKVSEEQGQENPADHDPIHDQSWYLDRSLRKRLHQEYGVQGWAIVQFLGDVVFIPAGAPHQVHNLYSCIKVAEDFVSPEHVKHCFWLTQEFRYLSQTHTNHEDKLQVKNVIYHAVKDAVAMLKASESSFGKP

[3] = Antiproliferative activity against human SU-DHL6 cells assessed as reduction in cell viability after 120 hrs by ATPlite assay; format: functional, cell-based; conditions: SU-DHL-6, 120 h
[4] = Antiproliferative activity against human NALM6 cells assessed as reduction in cell viability after 120 hrs by ATPlite assay; format: functional, cell-based; conditions: NALM-6, 120 h
[5] = target: Lysine-specific demethylase 4E (Homo sapiens, UniProt B2RXH2); assay: Inhibition of KDM4E (unknown origin) preincubated for 15 mins followed by histone substrate addition measured after 1 hr by alphascreen assay
Chain of Lysine-specific demethylase 4E (B2RXH2 whole entry): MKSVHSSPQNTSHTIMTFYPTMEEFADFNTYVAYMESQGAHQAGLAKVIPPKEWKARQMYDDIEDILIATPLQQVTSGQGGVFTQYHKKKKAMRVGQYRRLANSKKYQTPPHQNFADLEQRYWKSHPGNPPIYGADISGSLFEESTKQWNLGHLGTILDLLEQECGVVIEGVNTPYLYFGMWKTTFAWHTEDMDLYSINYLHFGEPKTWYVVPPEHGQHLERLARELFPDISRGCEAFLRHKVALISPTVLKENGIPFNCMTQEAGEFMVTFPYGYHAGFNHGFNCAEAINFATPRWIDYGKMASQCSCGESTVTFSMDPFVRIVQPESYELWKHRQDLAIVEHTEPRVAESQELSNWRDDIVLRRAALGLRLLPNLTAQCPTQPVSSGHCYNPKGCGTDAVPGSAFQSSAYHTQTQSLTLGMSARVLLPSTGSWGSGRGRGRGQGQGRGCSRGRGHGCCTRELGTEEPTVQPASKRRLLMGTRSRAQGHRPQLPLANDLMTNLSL

Egl nine homolog 1 = Egl nine homolog 1 (Homo sapiens, UniProt Q9GZT9); assay: Inhibition of PHD2 (unknown origin) preincubated for 15 mins followed by histone substrate addition measured after 1 hr by alphascreen assay
Chain of Egl nine homolog 1 (Q9GZT9 whole entry): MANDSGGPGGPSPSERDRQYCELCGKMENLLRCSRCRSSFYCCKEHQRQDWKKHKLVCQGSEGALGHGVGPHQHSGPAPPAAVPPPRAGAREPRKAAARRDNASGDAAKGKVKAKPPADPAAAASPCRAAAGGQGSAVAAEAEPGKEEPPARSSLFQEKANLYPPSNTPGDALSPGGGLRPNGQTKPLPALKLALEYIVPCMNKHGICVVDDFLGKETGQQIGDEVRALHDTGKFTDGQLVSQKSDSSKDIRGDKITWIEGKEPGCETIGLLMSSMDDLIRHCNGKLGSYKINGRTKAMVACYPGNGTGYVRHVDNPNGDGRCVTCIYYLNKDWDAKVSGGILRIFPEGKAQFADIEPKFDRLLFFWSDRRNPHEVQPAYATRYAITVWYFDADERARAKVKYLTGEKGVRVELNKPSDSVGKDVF

[6] = Inhibition of FIH (unknown origin) using ankyrin peptide substrate preincubated for 5 mins followed by substrate addition measured after 5 mins MALDI-TOF mass spectrometric analysis; set-up: species or system Homo sapiens
[7] = target: T2, Lysine-specific demethylase 2A (Homo sapiens, UniProt Q9Y2K7); assay: Inhibition of KDM2A (unknown origin) preincubated for 15 mins followed by histone substrate addition measured after 1 hr by alphascreen assay
T2 sequence (Q9Y2K7 whole entry): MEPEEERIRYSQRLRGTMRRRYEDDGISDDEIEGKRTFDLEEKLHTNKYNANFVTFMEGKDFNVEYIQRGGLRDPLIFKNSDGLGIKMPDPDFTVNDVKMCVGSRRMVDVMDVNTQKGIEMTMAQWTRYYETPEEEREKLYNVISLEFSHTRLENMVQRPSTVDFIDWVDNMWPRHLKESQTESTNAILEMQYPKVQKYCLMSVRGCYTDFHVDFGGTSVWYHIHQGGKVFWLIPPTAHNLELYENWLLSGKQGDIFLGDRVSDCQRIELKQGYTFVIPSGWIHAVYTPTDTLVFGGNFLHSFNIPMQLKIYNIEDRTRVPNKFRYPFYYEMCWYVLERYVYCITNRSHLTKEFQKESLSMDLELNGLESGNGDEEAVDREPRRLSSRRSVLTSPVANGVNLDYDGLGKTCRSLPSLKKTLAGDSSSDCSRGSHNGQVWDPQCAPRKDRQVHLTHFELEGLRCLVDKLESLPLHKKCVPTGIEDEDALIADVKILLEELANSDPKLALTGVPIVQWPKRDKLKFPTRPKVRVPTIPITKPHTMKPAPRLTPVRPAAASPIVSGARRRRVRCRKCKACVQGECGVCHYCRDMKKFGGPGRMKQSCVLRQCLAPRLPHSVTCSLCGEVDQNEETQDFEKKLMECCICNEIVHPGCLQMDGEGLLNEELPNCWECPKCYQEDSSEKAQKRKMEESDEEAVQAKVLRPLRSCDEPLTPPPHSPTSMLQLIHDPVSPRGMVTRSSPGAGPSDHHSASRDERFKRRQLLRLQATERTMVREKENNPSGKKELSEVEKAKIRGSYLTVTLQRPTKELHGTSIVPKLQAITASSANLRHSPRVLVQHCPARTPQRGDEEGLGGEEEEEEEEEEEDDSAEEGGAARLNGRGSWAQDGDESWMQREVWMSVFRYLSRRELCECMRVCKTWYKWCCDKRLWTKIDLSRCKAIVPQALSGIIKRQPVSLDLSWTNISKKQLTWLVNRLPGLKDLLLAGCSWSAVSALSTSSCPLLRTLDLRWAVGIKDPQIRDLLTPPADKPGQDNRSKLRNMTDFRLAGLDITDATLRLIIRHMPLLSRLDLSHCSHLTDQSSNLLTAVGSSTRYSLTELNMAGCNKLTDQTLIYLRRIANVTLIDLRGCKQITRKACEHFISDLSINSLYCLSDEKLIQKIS

CCN(CCN(C)C)C(=O)CNCc1cc(C(=O)O)ccn1
IC50 (MCF7): 1 µM

CCN(CCN(C)C)C(=O)CNCc1cc(CNC(=O)C(F)(F)F)ccn1
EC50 [1]: < 0.25 µM | IC50 [2]: > 2.5 µM | EC50 [3]: < 0.25 µM

CCN(CC)CCCCNCc1cc(C=O)ccn1
IC50 [2]: > 2.5 µM | EC50 [4]: < 0.25 µM | EC50 (MCF7): < 0.25 µM

Cc1ccsc1C(NC(=O)c1ccccc1)c1cc(Cl)c2cccnc2c1O (racemic)
IC50 [5]: 5 µM | IC50 (Egl nine homolog 1): 96 µM | IC50 [6]: > 100 µM | IC50 [7]: 34 µM
